Measurements as given in patent US7098372B1, “Pharmaceutical compositions and methods of using secreted frizzled related protein” (Wyeth, priority 1999, dated 2006).

Experiments:
Assay type in all cases: cell-based, human
hOB-03-C5 cells = experiment: Apoptosis by flow cytometry using annexin V-FITC and propidium iodide
Method: Apoptosis was measured by flow cytometry using annexin V-FITC.
The hypothesis that up-regulation of SFRP-1/FRP-1/SARP-2 gene expression accelerates hOB cell death, while down-regulation of SFRP-1/FRP-1/SARP-2 gene expression suppresses cell death, was next examined. […] The next day, the 6-well plates were rinsed with PBS, placed in BSA-medium, and treated at 39° C. in the absence or presence of either 100 nM PGE2 (in order to up-regulate SFRP-1/FRP-1/SARP-2 steady-state mRNA levels; panels A & B), or 0.01–1.0 nM TGF-β1 (in order to down-regulate SFRP-1/FRP-1/SARP-2 message levels; panel C). Incubating cells in serum-free medium is a common method to induce apoptosis (Melkonyan et al. 1997 Proc. Natl. Acad. Sci. USA 94: 13636–13641), and the hOB-03-C5, hOB-03-CE6 and hOB-01-C1 cell lines all stopped dividing and gradually died under these conditions. […] In contrast, treatment of the hOB-01-C1 cells with TGF-β1 increased cell viability about 2-fold in a dose-dependent manner. […] This observation was consistent with the induction of apoptosis, which is known to result in cytoplasmic blebbing, the loss of water and a decrease in cell volume (Mesner and Kaufmann 1997 in Advances in Pharmacology, vol. 41, pp. 57–88). […] Finally, treatment of the hOB-03-C5 cells with PGE2 increased annexin V (a specific marker for apoptosis) binding to the cell as measured by flow cytometry (FIG. 11).

β-catenin = experiment: Western blot analysis for β-catenin; details: hOB-03-CE6 cells, 100 nM, 24 hr
Method: FIG. 15 is an autoradiogram of a Western blot of whole cell extracts isolated from hOB-03-CE6 cells treated with either control or PGE2 for 24 hr. The immunoblot was probed with a monoclonal antibody to β-catenin, which has a molecular weight of 92,000.
In order to determine if the up-regulation of SFRP-1/FRP-1/SARP-2 gene expression results in an antagonism of the Wnt signaling pathway, hOB-03-CE6 cells were treated with PGE2 and the resulting cells probed with β-catenin monoclonal antibody. Overexpression of Wnt proteins in cells up-regulates a signaling protein known as β-catenin (reviewed in Moon et al. 1997 Cell 88: 725–728; Barth et al. 1997 Curr. Opin. Cell Biol. 9: 683–690; and Nusse 1997 Cell 89: 321–323). […] Therefore, hOB-03-CE6 cells were plated and treated with PGE2 as described in Example 1, except that total cellular protein was extracted and a Western blot analysis for β-catenin was performed using a monoclonal antibody to the protein (Transduction Laboratories) as previously described (Bodine et al. 1996 Endocrinology 137: 4592–4604; Melkonyan et al. 1997 Proc. Natl. Acad. Sci. USA 94: 13636–13641). […] Both human and rat SFRP-1/FRP-1/SARP-2, as well as human Frzb-1/FrzB/Fritz, suppressed TCF-luciferase activity in the hOB cells.

hOB-01-C1-PS-09 cells = experiment: Hepatocyte growth factor (HGF) secretion by hOB-01-C1-PS-09 cells; details: 39° C.

Molecule | annexin V binding to the cell (hOB-03-C5 cells) | number of apoptotic cells (annexin V but not propidium iodide) (hOB-03-C5 cells; increasing concentrations) | number of necrotic cells (annexin V and propidium iodide) (hOB-03-C5 cells; increasing concentrations) | number of viable cells (no annexin V or propidium iodide staining) (hOB-03-C5 cells; increasing concentrations) | β-catenin protein levels (β-catenin) | HGF secretion (hOB-01-C1-PS-09 cells)
CCCCC[C@H](O)/C=C/[C@H]1[C@H](O)CC(=O)[C@@H]1C/C=C\CCCC(=O)O [PGE2, prostaglandin E2] | increased | increases | increases | declines | down-regulated | –
human transforming growth factor-β1 [TGF-β1] | – | – | – | – | – | dose-dependent decrease
